The source of these data is paper PMC12628652, “A Validated UPLC‐MS/MS Method for Monitoring Temozolomide and Perillyl Alcohol Metabolites in Biological Matrices: Insights From a Preclinical Pharmacokinetic Study” (Biomedical Chromatography, 2025).

Some results are limits rather than exact numbers.

Series [1] in a line: Pharmacokinetic study in rats after single oral administration of POH and TMZ (plasma, UPLC-MS/MS). It is filed as in vivo, Male Wistar rats. The conditions noted are these: rat plasma; for Tmax / half-life / k el / AUC(0-t) / Cmax: male, Wistar; for AUC(0-t): read-out: AUC0–24h. On the procedure: Approximately 200 μL of whole blood was collected from the tail vein of each rat. Samples were centrifuged at 3500 rpm for 10 min at 20°C to separate the plasma. Plasma samples were then subjected to liquid–liquid extraction with ACN. The mixture was centrifuged again at 3500 rpm for 10 min at 4°C. The resulting supernatant was filtered through hydrophobic 0.22 μm membranes and transferred to autosampler vials. A 2 μL aliquot of each sample was injected into the UPLC‐MS/MS system for analysis.
Thawed plasma samples (50 μL) were also prepared by protein precipitation. Each sample was mixed with 50 μL of IS solution and 900 μL of ACN, followed by centrifugation at 3500 rpm for 10 min at 20°C. The supernatants were filtered and analyzed as described. All dilutions were performed based on analyte concentration to ensure compliance with the method's validated dynamic range.
The pharmacokinetic and biodistribution study was conducted in accordance with ethical guidelines and approved by the Animal Ethics Committee of the Universidade Estadual do Centro‐Oeste, Brazil (Protocol No. 026/2023). Male Wistar rats (n = 6 for pharmacokinetics; n = 4 for biodistribution), weighing approximately 200 g, were housed under controlled environmental conditions (12 h light/dark cycle, 35% relative humidity, and temperature of 23°C ± 2°C). Animals had free access to food and water, which were withheld 10 h prior to drug administration and resumed 2 h afterward.
Each animal received a single oral dose of POH (47 mg/kg) and TMZ (2 mg/kg). For pharmacokinetic profiling, blood samples were collected via the tail vein into heparinized tubes at predefined time points: 0.5, 1, 2, 4, 8, 12, and 24 h post‐administration. For biodistribution analysis, a separate cohort of rats (n = 4) was sacrificed 4 h after dosing. Organs, including the brain, liver, lungs, kidneys, and spleen, were collected, homogenized, and stored at −20°C for subsequent quantification, as detailed in Section 3.2.
Pharmacokinetic parameters were calculated using non‐compartmental analysis with the PKSolver plugin for Microsoft Excel. The following parameters were determined: area under the plasma concentration–time curve from 0 to 24 h (AUC0–24h), maximum plasma concentration (Cmax), time to reach Cmax (tmax), elimination half‐life (t1/2), volume of distribution (VD), and total clearance (CL).

Details of series [2]: method as in Ostermann et al. [2004]. Particulars: ref Ostermann et al. [2004]; cited from earlier work.
[3] abbreviates: single oral dose POH 47 mg/kg and TMZ 2 mg/kg, n = 6.

As to `NC(=O)c1[nH]cnc1N` [AIC, 5‐aminoimidazole‐4‐carboxamide], in series [1] (setting [3]), the Tmax amounted to 1 h, the half-life is 18.5 h, the k el was 1.03e-05 s⁻¹ and the AUC(0-t) came to 2190 ng·h/mL. In addition, in series [1] (setting [3]), the CL was 3.83 mL/min/kg and the Vd was 6.09 L/kg.

For `C=C(C)[C@@H]1CC=C(C(=O)O)CC1` [PA, perillic acid], the time of peak concentration (Tmax) in series [1] (single oral dose POH 47 mg/kg) is at most 0.5 h. In addition, in series [1] (setting [3]), the highest concentration (Cmax) was determined as 704 ng/mL, the Tmax is 0.5 h, the half-life was 19 h and the k el is 1e-05 s⁻¹. Further, in series [1] (setting [3]), the AUC(0-t) is 2200 ng·h/mL, the CL is 3.83 mL/min/kg and the Vd was determined as 6.26 L/kg.

With `Cn1nnc2c(C(N)=O)ncn2c1=O` [TMZ, Temozolomide], in series [1] (setting [3]), the concentration peaked (Cmax) at 1450 ng/mL, the Tmax came to 1 h, the half-life is 18.4 h and the k el is 1.03e-05 s⁻¹. Further, in series [1] (setting [3]), the AUC(0-t) turned out to be 8170 ng·h/mL, the CL was 1.5 mL/min/kg and the Vd is on record as 1.75 L/kg. For the same compound, in series [2], the “share of the plasma concentration reaching brain tissues” value is ~ 20%.

By Tmax is commonly meant the time from dosing to the highest level. The term half-life denotes how long it takes for the measured level to halve. A low value points to rapid decline. One may read the Cmax as the peak of the concentration-time curve.
